Where “and” joins values, the source holds several entries; their conditions need not be identical. Equal values may be shown once. Read-outs that look alike come from different tables or passages of the source.
Legend:
[1] = molecular target: T1, human recombinant adrenergic α2B receptor (Homo sapiens, UniProt P18089); assay: Radioligand binding, adrenergic α2B ([3H]Rauwolscine); conditions: for Percentage inhibition of ligand binding, Adrenergic α2B (0.03 μM) / Percentage inhibition of ligand binding, Adrenergic α2B: compound at 0.03 μM, 0.03 µM; for Ki: read-out: Ki α2B; for inhibition at 0.1 µM: read-out: Percentage inhibition of ligand binding, Adrenergic α2B (0.1 μM), compound at 0.1 μM; for Percentage inhibition of ligand binding, Adrenergic α2B: repeat assays, each datapoint shown
T1 construct: expressed in transfected cells; host or cells: CHO-K1
T1 sequence (P18089 1-450): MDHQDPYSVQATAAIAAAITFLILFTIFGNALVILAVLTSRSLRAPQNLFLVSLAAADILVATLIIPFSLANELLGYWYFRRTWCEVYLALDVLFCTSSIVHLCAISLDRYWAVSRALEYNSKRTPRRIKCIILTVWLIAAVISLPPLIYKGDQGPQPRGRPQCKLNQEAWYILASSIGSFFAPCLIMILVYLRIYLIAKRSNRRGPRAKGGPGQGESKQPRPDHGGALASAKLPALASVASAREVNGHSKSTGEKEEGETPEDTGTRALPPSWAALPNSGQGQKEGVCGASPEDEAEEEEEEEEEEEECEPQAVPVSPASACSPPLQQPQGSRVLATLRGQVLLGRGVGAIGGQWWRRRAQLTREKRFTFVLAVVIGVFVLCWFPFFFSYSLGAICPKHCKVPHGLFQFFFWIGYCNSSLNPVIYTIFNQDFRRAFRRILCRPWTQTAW
Summary of the method: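 Assay used CHO-K1-expressed human α2B receptor in Tris-HCl pH 7.4 buffer with MgCl2, EDTA and BSA; 60 min incubation at 25 °C.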

[2] = molecular target: T2, human recombinant adrenergic α2A receptor (Homo sapiens, UniProt P08913); assay: Radioligand binding, adrenergic α2A ([3H]MK-912); conditions: for inhibition at 0.03 µM: read-out: Percentage inhibition of ligand binding, Adrenergic α2A (0.03 μM), compound at 0.03 μM; for Percentage inhibition of ligand binding, Adrenergic α2A (0.1 μM) / Percentage inhibition of ligand binding, Adrenergic α2A: 0.1 µM
T2 construct: expressed in transfected cells; host or cells: insect Sf9 cells
T2 sequence (P08913 1-465): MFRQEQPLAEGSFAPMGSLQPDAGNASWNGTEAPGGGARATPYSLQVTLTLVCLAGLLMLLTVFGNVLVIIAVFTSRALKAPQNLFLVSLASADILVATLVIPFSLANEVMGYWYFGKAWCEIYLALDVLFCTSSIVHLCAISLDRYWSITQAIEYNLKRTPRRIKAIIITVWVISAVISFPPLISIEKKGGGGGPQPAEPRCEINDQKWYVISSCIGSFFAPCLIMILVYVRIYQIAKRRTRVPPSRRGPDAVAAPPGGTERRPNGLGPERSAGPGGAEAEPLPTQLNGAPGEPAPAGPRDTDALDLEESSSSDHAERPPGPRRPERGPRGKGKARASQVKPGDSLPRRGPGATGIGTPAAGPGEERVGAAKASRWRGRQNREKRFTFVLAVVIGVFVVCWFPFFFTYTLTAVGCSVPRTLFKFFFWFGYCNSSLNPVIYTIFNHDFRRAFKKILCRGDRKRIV
Summary of the method: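 Receptor expressed in insect Sf9 cells, assayed in 50 mM Tris-HCl pH 7.4 with 12.5 mM MgCl2 and 2 mM EDTA. Compounds incubated with 1 nM [3H]MK-912 for 60 min at 25 °C; nonspecific binding defined with 10 μM WB-4101. Filter-bound radioactivity counted; values are percent inhibition of specific binding.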

[3] = molecular target: T3, rat adrenergic α1B receptor (Rattus norvegicus, UniProt P15823); assay: Radioligand binding, adrenergic α1B ([3H]Prazosin); conditions: for inhibition at 0.03 µM: read-out: Percentage inhibition of ligand binding, Adrenergic α1B (0.03 μM), compound at 0.03 μM; for Percentage inhibition of ligand binding, Adrenergic α1B (0.1 μM) / Percentage inhibition of ligand binding, Adrenergic α1B: compound at 0.1 μM, 0.1 µM; for Percentage inhibition of ligand binding, Adrenergic α1B: repeat assays, each datapoint shown
T3 construct: rat adrenergic α1B receptor obtained from Wistar Rat liver; from tissue; host or cells: Wistar rat liver
T3 sequence (P15823 1-515): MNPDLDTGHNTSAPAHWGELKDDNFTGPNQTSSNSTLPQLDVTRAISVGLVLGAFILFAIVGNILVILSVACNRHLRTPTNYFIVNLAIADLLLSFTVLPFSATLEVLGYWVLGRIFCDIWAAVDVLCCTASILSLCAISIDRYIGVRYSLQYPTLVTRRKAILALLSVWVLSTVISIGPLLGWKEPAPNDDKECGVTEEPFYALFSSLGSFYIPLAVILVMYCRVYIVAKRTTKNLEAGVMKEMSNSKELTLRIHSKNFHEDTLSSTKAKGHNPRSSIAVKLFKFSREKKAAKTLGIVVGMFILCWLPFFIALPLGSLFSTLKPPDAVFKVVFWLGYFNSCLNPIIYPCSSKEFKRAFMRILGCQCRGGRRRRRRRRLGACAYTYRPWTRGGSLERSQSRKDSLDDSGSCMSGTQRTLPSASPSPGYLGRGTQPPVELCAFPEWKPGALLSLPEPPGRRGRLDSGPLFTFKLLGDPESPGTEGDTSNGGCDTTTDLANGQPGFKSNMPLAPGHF
Summary of the method: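 Incubation ran 60 min at 25 °C in Tris-HCl buffer (50 mM, pH 7.4, 0.5 mM EDTA) with Wistar rat liver α1B receptor. 10 μM phentolamine set non-specific binding.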

[4] = [3H]Rauwolscine, repeat datapoints each shown
[5] = read-out: Percentage inhibition of ligand binding, Adrenergic α2B (0.03 μM), compound at 0.03 μM, [3H]Rauwolscine, repeat datapoints each shown
[6] = compound at 0.1 μM, [3H]MK-912, repeat datapoints each shown
[7] = [3H]MK-912, repeat datapoints each shown
[8] = [3H]Prazosin, repeat datapoints each shown
[9] = read-out: Percentage inhibition of ligand binding, Adrenergic α1B (0.1 μM), compound at 0.1 μM, [3H]Prazosin, repeat datapoints each shown
[10] = read-out: Percentage inhibition of ligand binding, Adrenergic α2A (0.1 μM), compound at 0.1 μM, [3H]MK-912, repeat datapoints each shown
[11] = compound at 0.1 μM, [3H]MK-912, repeat assays, each datapoint shown

| SMILES | Percentage inhibition of ligand binding, Adrenergic α2B (0.03 μM) [1, 4] | inhibition at 0.03 µM [1, 5] | Percentage inhibition of ligand binding, Adrenergic α2A (0.1 μM) [2, 6] | inhibition at 0.1 µM [3, 9] | inhibition at 0.1 µM [2, 10] | Percentage inhibition of ligand binding, Adrenergic α1B (0.1 μM) [3, 8] | Percentage inhibition of ligand binding, Adrenergic α2B ([1]; [3H]Rauwolscine) | Percentage inhibition of ligand binding, Adrenergic α1B ([3]; [3H]Prazosin) | further results |
| --- | --- | --- | --- | --- | --- | --- | --- | --- | --- |
| OC(Cn1c2c(c3cccnc31)CN1CCCC1C2)c1ccncc1 (single isomer, unassigned) [37b] |  |  |  |  |  |  | −3% | −10% | Percentage inhibition of ligand binding, Adrenergic α2A [2, 11]: −20% |
| Cc1ccc2c(c1)c1c(n2CC(O)c2ccncc2)C(C)N2CCC1C2 (single isomer, unassigned) [38b] |  |  |  |  |  |  | 17% | 20% | Percentage inhibition of ligand binding, Adrenergic α2A [2, 11]: −1% |
| CCC1c2c(c3cc(C)ccc3n2CC(O)c2ccncc2)C2CCN1C2 (single isomer, unassigned) [36b] |  |  |  |  |  |  | −1% | 11% | Percentage inhibition of ligand binding, Adrenergic α2A [2, 11]: 0% |
| Cc1ccc2c(c1)c1c(n2CC(N)c2ccncc2)CCN(C)CC1 (single isomer, unassigned) [154a, 2-(3,9-dimethyl-2,3,4,5-tetrahydroazepino[4,5-b]indol-6(1H)-yl)-1-(pyridin-4-yl)ethanamine] | 31% |  | 4% |  |  | 39% |  |  |  |
| Cc1cnc2c(c1)c1c(n2CCc2ccncc2)CCN2CCCC12 (single isomer, unassigned) [II-244a, 9-methyl-6-(2-pyridin-4-yl-ethyl)-2,3,4,5,6,10c-hexahydro-1H-3a,6,7-triaza-cyclopenta[c]fluorene] | 102% |  | 22% |  |  | 95% |  |  |  |
| Cc1ccc2c(c1)c1c(n2CC(N)c2ccncc2)CCN(C)CC1 (stereo not drawn) [compound 154, 2-(3,9-dimethyl-2,3,4,5-tetrahydroazepino[4,5-b]indol-6(1H)-yl)-1-(pyridin-4-yl)ethanamine] | 58% |  | 15% |  |  | 86% |  |  |  |
| CN1C2CCC1c1c(n(CC(O)c3ccncc3)c3ccc(Cl)cc13)C2 (stereo not drawn) [II-66] |  |  |  |  |  |  |  |  | inhibition at 0.03 µM ([1]; 0.03 μM compound, read-out: Percentage inhibition of ligand binding, Adrenergic α2B): 46%; inhibition at 0.1 µM ([2]; 0.1 μM compound, read-out: Percentage inhibition of ligand binding, Adrenergic α2A): 0%; inhibition at 0.1 µM ([3]; 0.1 μM compound, read-out: Percentage inhibition of ligand binding, Adrenergic α1B): 27% |

Second part, led by results:

| Percentage inhibition of ligand binding, Adrenergic α2B (0.03 μM) [1, 4] | inhibition at 0.03 µM [1, 5] | Percentage inhibition of ligand binding, Adrenergic α2A (0.1 μM) [2, 6] | inhibition at 0.1 µM [3, 9] | inhibition at 0.1 µM [2, 10] | Percentage inhibition of ligand binding, Adrenergic α1B (0.1 μM) [3, 8] | Percentage inhibition of ligand binding, Adrenergic α2B ([1]; [3H]Rauwolscine) | Percentage inhibition of ligand binding, Adrenergic α1B ([3]; [3H]Prazosin) | SMILES | further results |
| --- | --- | --- | --- | --- | --- | --- | --- | --- | --- |
| 105% | 101% | 56% and 77% | 96% |  |  |  |  | Cc1ccc2c(c1)c1c(n2CCc2ccc(C)nc2)CCN2CCCC12 (single isomer, unassigned) [197b, 9-methyl-6-[2-(6-methyl-pyridin-3-yl)-ethyl]-2,3,4,5,6,10c-hexahydro-1H-3a, 6-diaza-cyclopenta[c]fluorene] | Ki [1]: 0.78 nM; Ki [2]: 11.9 nM; inhibition at 0.03 µM [2, 7]: 50%; inhibition at 0.03 µM [3, 8]: 89% |
|  | 40% |  | 15% | 4% |  |  |  | Cc1ccc2c(c1)c1c(n2CC(CC(C)(C)O)c2ccncc2)CCN(C)C1 (stereo not drawn) [II-226, 5-(2,8-dimethyl-1,2,3,4-tetrahydro-pyrido[4,3-b]indol-5-yl)-2-methyl-4-pyridin-4-yl-pentan-2-ol] |  |
| 100% | 97% | 34% | 37% | 31% | 45% |  |  | Cc1ccc2c(c1)c1c(n2CC(C)(O)c2cccnc2)CNCC1 (single isomer, unassigned) [128a] | Ki [1]: 0.97 nM; inhibition at 0.1 µM [1, 4]: 104%; Ki [2]: 98.6 nM; inhibition at 0.03 µM [2, 7]: 9%; inhibition at 0.03 µM [3, 8]: 14% |
| 104% | 103% | 92% | 97% | 91% | 98% |  |  | Cc1ccc2c(c1)c1c(n2CC(C)(O)c2ccc(F)cc2)CCN2CCCC12 (single isomer, unassigned) [II-121a, 2-(4-fluoro-phenyl)-1-(9-methyl-1,2,3,4,5,10c-hexahydro-3a,6-diaza-cyclopenta[c]fluoren-6-yl)-propan-2-ol] | Ki [2]: 4.52 nM; inhibition at 0.03 µM [2, 7]: 65%; inhibition at 0.03 µM [3, 8]: 90% |
|  |  |  |  |  |  | 2% | 16% | Cc1ccc2c(c1)c1c(n2CC(C)(O)c2ccccn2)CN(C)CC1 (single isomer, unassigned) [16b, 1-(2,6-dimethyl-1,2,3,4-tetrahydro-β-carbolin-9-yl)-2-pyridin-2-yl-propan-2-ol] | Percentage inhibition of ligand binding, Adrenergic α2A [2, 11]: 2% |
|  |  |  |  |  |  | 63% | 37% | Cc1cnc2c(c1)c1c(n2CC(O)c2ccncc2)CCN(C)C1 (stereo not drawn) [compound 55, 2-(3,6-dimethyl-5,6,7,8-tetrahydro-1,6,9-triaza-fluoren-9-yl)-1-pyridin-4-yl-ethanol] | inhibition at 0.1 µM ([2]; compound at 0.1 μM, [3H]MK-912, repeat assays, each datapoint shown, read-out: Percentage inhibition of ligand binding, Adrenergic α2A): 13% |
|  | 48% | 64% | 18% | 58% |  |  |  | CN1CCc2c(c3c(Cl)cccc3n2CCc2ccccc2)C1 [compound 214] | Ki [1]: 12.9 nM; inhibition at 0.1 µM [1, 4]: 80%; Ki [2]: 22.7 nM; inhibition at 0.03 µM [2, 7]: 37% |
| 103% |  | 86% |  |  | 92% |  |  | CC(O)(Cn1c2c(c3cc(Cl)ccc31)C1CCCN1CC2)c1cccnc1 (single isomer, unassigned) [II-130a, 1-(10-chloro-2,3,5,6-tetrahydro-1H-indolizino[7,8-b]indol-7(11cH)-yl)-2-(pyridin-3-yl)propan-2-ol] |  |
|  | 34% |  | 48% | -3% |  |  |  | Cc1ccc2c(c1)c1c(n2CC(C)(O)c2cccnc2)CCN(C)CC1 (stereo not drawn) [II-135a, 1-(3,9-dimethyl-2,3,4,5-tetrahydroazepino[4,5-b]indol-6(1H)-yl)-2-(pyridin-3-yl)propan-2-ol] |  |
